# Structures can show the parent of a compound that is named as a salt.
# Columns and labels:
# [1] = test system: N. primulina; assay: Growth of N. primulina in Trypticase soy broth medium stored 7 days at 25° C.; format: cell-based, Neosartorya primulina; conditions: for Growth of N. primulina after lapse of 7 days under storage at 25° C.: concentration 1000 ppm; for growth inhibition effect against N. primulina: 1000 ppm
# Protocol: (§1) Diethyl fumarate and 2-decenoic acid were prepared for use in Examples. In addition, the following components reported to have a growth inhibition effect against normal mold (non-heat-resistant mold) were prepared for use in Comparative Examples: palmitic acid, trans-anethole, benzyl alcohol, cinnamic acid, hinokitiol, salicylic acid, hexanal, 2-mercapto benzothiazole, p-cymene, 1,8-cineole, α-pinene, estragole, 4-hydroxy-3,5-dimethoxybenzoic acid, and linalyl acetate. Then, each component was added to a medium of Trypticase soy broth such that the concentration of each component was as shown in Table 3 below.
# (§2) These media were stored for 7 days under an atmosphere at 25° C. […] In Table, those showing the growth are represented by “+,” and those showing no growth are represented by “−.”
# [2] = test system: B. fulva; assay: Growth of B. fulva in Trypticase soy broth medium stored 7 days at 25° C.; format: cell-based, Byssochlamys fulva; conditions: for Growth of B. fulva after lapse of 7 days under storage at 25° C.: concentration 1000 ppm; for growth inhibition effect against B. fulva: 1000 ppm
# Protocol: as §1, §2
# [3] = test system: B. fulva; assay: Growth of B. fulva in tomato juice stored at 25° C.; format: cell-based, Byssochlamys fulva; conditions: for generation of B. fulva after the lapse of 14 days: 25° C., high concentration of the active component (270 ppm); for Growth of B. fulva, 3 days / Growth of B. fulva, 5 days / Growth of B. fulva, 7 days / Growth of B. fulva, 10 days / Growth of B. fulva, 14 days: storage at 25° C.
# Protocol: Diethyl fumarate or 2-decenoic acid was added to tomato juice (100% pure, salt-free) such that the concentration of the component was as shown in Table 1 below. […] In Table 1, those showing the growth of B. fulva are represented by “+,” and those showing no growth are represented by “−.”
# [4] = test system: N. primulina; assay: Growth of N. primulina in tomato juice stored at 25° C.; format: cell-based, Neosartorya primulina; parameters: key to Growth of N. primulina, 5 days / Growth of N. primulina, 7 days / Growth of N. primulina, 10 days / Growth of N. primulina, 14 days: those showing the growth of N. primulina are represented by “+,”; those showing no growth are represented by “−.”; conditions: for growth inhibition effect against N. primulina after the lapse of 14 days: high concentration of the active component (270 ppm); for Growth of N. primulina, 3 days / Growth of N. primulina, 5 days / Growth of N. primulina, 7 days / Growth of N. primulina, 10 days / Growth of N. primulina, 14 days: storage at 25° C.
# Protocol: Diethyl fumarate or 2-decenoic acid was added to tomato juice (100% pure, salt-free) such that the concentration of the component was as shown in Table 2 below. […] In Table 2, those showing the growth of N. primulina are represented by “+,” and those showing no growth are represented by “−.”
structure (smiles),measurement,setting,value
"CC12CCC(CC1)C(C)(C)O2 [1,8-Cineole]",Growth of N. primulina after lapse of 7 days under storage at 25° C.,[1],+
same,Growth of B. fulva after lapse of 7 days under storage at 25° C.,[2],+
"CCCCCCC/C=C/C(=O)O [2-Decenoic acid, (E)-dec-2-enoic acid]",generation of B. fulva after the lapse of 14 days,[3],no generation
same,"Growth of B. fulva, 3 days",[3]; 70 ppm,−
same,"Growth of B. fulva, 5 days",[3]; 70 ppm,−
same,"Growth of B. fulva, 7 days",[3]; 70 ppm,−
same,"Growth of B. fulva, 10 days",[3]; 70 ppm,+
same,"Growth of B. fulva, 14 days",[3]; 70 ppm,+
same,"Growth of B. fulva, 3 days",[3]; 270 ppm,−
same,"Growth of B. fulva, 5 days",[3]; 270 ppm,−
same,"Growth of B. fulva, 7 days",[3]; 270 ppm,−
same,"Growth of B. fulva, 10 days",[3]; 270 ppm,−
same,"Growth of B. fulva, 14 days",[3]; 270 ppm,−
same,growth inhibition effect against N. primulina after the lapse of 14 days,[4]; 25° C.,the effect is maintained
same,"Growth of N. primulina, 3 days",[4]; 70 ppm,−
same,"Growth of N. primulina, 5 days",[4]; 70 ppm,+
same,"Growth of N. primulina, 7 days",[4]; 70 ppm,+
same,"Growth of N. primulina, 10 days","[4]; 70 ppm, 10 days",+
same,"Growth of N. primulina, 14 days",[4]; 70 ppm,+
same,"Growth of N. primulina, 3 days",[4]; 270 ppm,−
same,"Growth of N. primulina, 5 days",[4]; 270 ppm,−
same,"Growth of N. primulina, 7 days",[4]; 270 ppm,−
same,"Growth of N. primulina, 10 days","[4]; 270 ppm, 10 days",−
same,"Growth of N. primulina, 14 days",[4]; 270 ppm,−
same,growth inhibition effect against N. primulina,[1],exhibit the growth inhibition effect
same,Growth of N. primulina after lapse of 7 days under storage at 25° C.,[1],−
same,growth inhibition effect against B. fulva,[2],exhibit the growth inhibition effect
same,Growth of B. fulva after lapse of 7 days under storage at 25° C.,[2],−
Sc1nc2ccccc2s1 [2-Mercapto benzothiazole],Growth of N. primulina after lapse of 7 days under storage at 25° C.,[1],+
same,Growth of B. fulva after lapse of 7 days under storage at 25° C.,[2],+
"COc1cc(C(=O)O)cc(OC)c1O [4-Hydroxy-3,5-dimethoxybenzoic acid]",Growth of N. primulina after lapse of 7 days under storage at 25° C.,[1],+
same,Growth of B. fulva after lapse of 7 days under storage at 25° C.,[2],+
OCc1ccccc1 [Benzyl alcohol],Growth of N. primulina after lapse of 7 days under storage at 25° C.,[1],+
same,Growth of B. fulva after lapse of 7 days under storage at 25° C.,[2],+
O=C(O)C=Cc1ccccc1 [Cinnamic acid],Growth of N. primulina after lapse of 7 days under storage at 25° C.,[1],+
same,Growth of B. fulva after lapse of 7 days under storage at 25° C.,[2],+
"CCOC(=O)/C=C/C(=O)OCC [Diethyl fumarate, diethyl (E)-but-2-enedioate]",generation of B. fulva after the lapse of 14 days,[3],no generation
same,"Growth of B. fulva, 3 days",[3]; 70 ppm,−
same,"Growth of B. fulva, 5 days",[3]; 70 ppm,−
same,"Growth of B. fulva, 7 days",[3]; 70 ppm,−
same,"Growth of B. fulva, 10 days",[3]; 70 ppm,+
same,"Growth of B. fulva, 14 days",[3]; 70 ppm,+
same,"Growth of B. fulva, 3 days",[3]; 270 ppm,−
same,"Growth of B. fulva, 5 days",[3]; 270 ppm,−
same,"Growth of B. fulva, 7 days",[3]; 270 ppm,−
same,"Growth of B. fulva, 10 days",[3]; 270 ppm,−
same,"Growth of B. fulva, 14 days",[3]; 270 ppm,−
same,generation of N. primulina after the lapse of 10 days,"[4]; 25° C., 10 days",no generation
same,growth inhibition effect against N. primulina after the lapse of 14 days,[4]; 25° C.,the effect is maintained
same,"Growth of N. primulina, 3 days",[4]; 70 ppm,−
same,"Growth of N. primulina, 5 days",[4]; 70 ppm,−
same,"Growth of N. primulina, 7 days",[4]; 70 ppm,−
same,"Growth of N. primulina, 10 days","[4]; 70 ppm, 10 days",−
same,"Growth of N. primulina, 14 days",[4]; 70 ppm,+
same,"Growth of N. primulina, 3 days",[4]; 270 ppm,−
same,"Growth of N. primulina, 5 days",[4]; 270 ppm,−
same,"Growth of N. primulina, 7 days",[4]; 270 ppm,−
same,"Growth of N. primulina, 10 days","[4]; 270 ppm, 10 days",−
same,"Growth of N. primulina, 14 days",[4]; 270 ppm,−
same,growth inhibition effect against N. primulina,[1],exhibit the growth inhibition effect
same,Growth of N. primulina after lapse of 7 days under storage at 25° C.,[1],−
same,growth inhibition effect against B. fulva,[2],exhibit the growth inhibition effect
same,Growth of B. fulva after lapse of 7 days under storage at 25° C.,[2],−
C=CCc1ccc(OC)cc1 [Estragole],Growth of N. primulina after lapse of 7 days under storage at 25° C.,[1],+
same,Growth of B. fulva after lapse of 7 days under storage at 25° C.,[2],+
CCCCCC=O [Hexanal],Growth of N. primulina after lapse of 7 days under storage at 25° C.,[1],+
same,Growth of B. fulva after lapse of 7 days under storage at 25° C.,[2],+
CC(C)c1cccc(=O)c(O)c1 [Hinokitiol],Growth of N. primulina after lapse of 7 days under storage at 25° C.,[1],+
same,Growth of B. fulva after lapse of 7 days under storage at 25° C.,[2],+
C=CC(C)(CCC=C(C)C)OC(C)=O (stereo not drawn) [Linalyl acetate],Growth of N. primulina after lapse of 7 days under storage at 25° C.,[1],+
same,Growth of B. fulva after lapse of 7 days under storage at 25° C.,[2],+
CCCCCCCCCCCCCCCC(=O)O [Palmitic acid],Growth of N. primulina after lapse of 7 days under storage at 25° C.,[1],+
same,Growth of B. fulva after lapse of 7 days under storage at 25° C.,[2],+
O=C(O)c1ccccc1O [Salicylic acid],Growth of N. primulina after lapse of 7 days under storage at 25° C.,[1],+
same,Growth of B. fulva after lapse of 7 days under storage at 25° C.,[2],+
C/C=C/c1ccc(OC)cc1 [Trans-anethole],Growth of N. primulina after lapse of 7 days under storage at 25° C.,[1],+
same,Growth of B. fulva after lapse of 7 days under storage at 25° C.,[2],+
Cc1ccc(C(C)C)cc1 [p-Cymene],Growth of N. primulina after lapse of 7 days under storage at 25° C.,[1],+
same,Growth of B. fulva after lapse of 7 days under storage at 25° C.,[2],+
CC1=CCC2CC1C2(C)C (stereo not drawn) [α-Pinene],Growth of N. primulina after lapse of 7 days under storage at 25° C.,[1],+
same,Growth of B. fulva after lapse of 7 days under storage at 25° C.,[2],+

# From patent US20240215576A1, “HEAT-RESISTANT MOLD GROWTH INHIBITOR, FOOD AND DRINK IN WHICH GROWTH OF HEAT-RESISTANT MOLD IS INHIBITED, AND METHOD FOR INHIBITING GROWTH OF HEAT-RESISTANT MOLD” (NIPPON SHINYAKU CO., LTD., priority 2021, published 2024)
